Results taken from patent publication US20260250320A1, “LIPIDATED PEPTIDE INHIBITORS OF INTERLEUKIN-23 RECEPTOR” (Janssen Pharmaceutica NV, priority 2023, published 2026).
*1 amine or outer side, *2 acyl side, *3 side chain or, on linkers, in order; H or OH if unused. Where a SMILES comes first, the peptide text is derived from it. Bridges are numbered along the chain shown (N, C = ends). Side-chain parts run from the residue outwards. [ ]: non-standard residue; d: D form. The star is where a group is joined. ξ: configuration not given here. X30 = C[N+](C)(CCCC(=O)CCOCCOCCOCCOCCOCCOCCNC(=O)CC[C@H](NC(=O)CCCCCCCCCCCCCCCCC(=O)O)C(=O)O)CC(=O)*; X16 = CC(C)(S[*:2])[C@H](CC(=O)CCOCCOCC[N+](C)(C)C)C(=O)[*:1]; Me3N+(CH2)2O(CH2)2O(CH2)2CO = C[N+](C)(C)CCOCCOCCC(=O)*; CH2CH2OCH2CH2OCH2CH2NMe3+ = C[N+](C)(C)CCOCCOCC*; Trp(7-Me) = Cc1cccc2c(C[C@H](N)C(=O)O)c[nH]c12; C20 diacid = O=C(O)CCCCCCCCCCCCCCCCCCC(=O)*; C18 diacid = O=C(O)CCCCCCCCCCCCCCCCC(=O)*; γGlu = O=C(O)[C@H](CCC(=O)[*:2])N[*:1]; 2Nal = N[C@@H](Cc1ccc2ccccc2c1)C(=O)O; AEF = NCCOc1ccc(C[C@H](N)C(=O)O)cc1; X2 = C[N+](C)(C)C[C@@H](CC(=O)O)N*; 3Pal = N[C@@H](Cc1cccnc1)C(=O)O; Lys(Me) = CNCCCC[C@H](N)C(=O)O; NMeK = CN[C@@H](CCCCN)C(=O)O; Pen = CC(C)(S)[C@H](N)C(=O)O; Suc = O=C(CCC(=O)[*:2])[*:1]; ξ3Pal = NC(Cc1cccnc1)C(=O)O; Ac6c = NC1(C(=O)O)CCCCC1; Thp = NC1(C(=O)O)CCOCC1; Abu = CC[C@H](N)C(=O)O; X31 = C=C(CN(C)*)N(C)C; ξN = NC(=O)CC(N)C(=O)O; AEEA = NCCOCCOCC(=O)O; Sar = CNCC(=O)O

Columns and labels:
[1] = target: T1, IL-23R (Homo sapiens, UniProt Q5VWK5); test: IL23R Reporter Assay; format: cell-based; conditions: HEK293 cells containing IL-23R, IL-12Rβ1 and STAT-inducible firefly luciferase reporter; 10 ng/mL IL-23 (EC90); 5 h
T1 construct: HEK293 cells containing IL-23R, IL-12Rβ1 and a firefly luciferase reporter gene driven by a STAT-inducible promoter (Promega); host or cells: HEK293
T1 sequence (Q5VWK5 24-629): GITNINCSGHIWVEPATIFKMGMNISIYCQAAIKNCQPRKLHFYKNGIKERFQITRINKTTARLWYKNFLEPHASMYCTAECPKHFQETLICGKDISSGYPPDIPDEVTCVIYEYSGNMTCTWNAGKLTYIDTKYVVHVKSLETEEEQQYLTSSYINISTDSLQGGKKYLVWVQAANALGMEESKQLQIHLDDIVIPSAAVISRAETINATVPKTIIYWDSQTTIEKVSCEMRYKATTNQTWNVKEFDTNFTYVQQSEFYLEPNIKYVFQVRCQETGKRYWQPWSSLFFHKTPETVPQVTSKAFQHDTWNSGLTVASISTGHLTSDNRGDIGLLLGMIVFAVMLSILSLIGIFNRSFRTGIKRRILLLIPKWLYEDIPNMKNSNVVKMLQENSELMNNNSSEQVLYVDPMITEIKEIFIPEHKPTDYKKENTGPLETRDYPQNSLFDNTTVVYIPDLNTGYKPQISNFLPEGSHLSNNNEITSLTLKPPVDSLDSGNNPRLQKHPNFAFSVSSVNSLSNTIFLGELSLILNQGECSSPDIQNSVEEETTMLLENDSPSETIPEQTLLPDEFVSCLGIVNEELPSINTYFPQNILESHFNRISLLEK
How it was run: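 HEK293 cells carrying IL-23R, IL-12Rβ1 and a STAT-driven firefly luciferase reporter (4000 cells/well) received compound, then 10 ng/mL IL-23 solution (EC90), and were incubated for 5 h at 37° C. BioGlo luminescence was normalised to IL-23 alone (0%) and 30 μM control inhibitor (100%). IC50 came from a 4-parameter Hill fit.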

[2] = tested on: IL-23-stimulated phosphorylated STAT3 in peripheral blood mononuclear cells (PBMCs); test: PBMC pSTAT3 Assay; format: cell-based; conditions: PBMCs from healthy donors; 30 min preincubation with peptide; IL-23 5 ng/mL for 30 min; phospho-STAT3 by MSD
How it was run: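 Healthy-donor PBMCs expanded 4 days on anti-CD3 with 100 ng/mL IL-1β, starved ~4 h in RPMI-0.1% BSA, preincubated 30 min with peptide, then stimulated 30 min at 37 °C with 5 ng/mL IL-23. Lysate pSTAT3 measured by MSD phospho-STAT panel; IC50 derived.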

SMILES	IC50 [1] [nM]	IC50 [2] [nM]
C=C(CN(C)C(=O)C(Cc1cccnc1)NC(=O)[C@H](CC(N)=O)NC(=O)[C@H](CCCCN(C)C(C)=O)NC(=O)C1(NC(=O)[C@H](Cc2ccc3ccccc3c2)NC(=O)[C@H](Cc2ccc(OCCNC(=O)C[N+](C)(C)CCCC(=O)CCOCCOCCOCCOCCOCCOCCNC(=O)CC[C@H](NC(=O)CCCCCCCCCCCCCCCCC(=O)O)C(=O)O)cc2)NC(=O)[C@H]2NC(=O)[C@H](CCCCN(C)C(C)=O)NC(=O)[C@H](Cc3c[nH]c4ccccc34)NC(=O)[C@H]([C@@H](C)O)NC(=O)[C@H](CC)NC(=O)[C@@H](N)C(C)(C)SSC2(C)C)CCCCC1)N(C)C (stereo partly drawn) [compound 142, cPEG3aCO-Pen(3)-N(N(Me)2)-T-7MeW-K(NMeAc)-Pen(3)-AEF(SP6PEG6gEC18OH)-2Nal-THP-K(NMeAc)-N-3Pya-Sar-CON(Me)2] (H-[Pen][Abu]TW[Lys(Me)](Ac)[Pen][AEF](X30)[2Nal][Ac6c][Lys(Me)](Ac)N[ξ3Pal]-X31; disulfide 1-6)	< 50	< 0.5
CC(=O)N[C@H](CCCNC(=N)N)C(=O)N[C@@H]1C(=O)N[C@@H](CC(N)=O)C(=O)N[C@@H]([C@@H](C)O)C(=O)N[C@@H](Cc2c[nH]c3c(C)cccc23)C(=O)N[C@@H](CCCCNC(=O)COCCOCCNC(=O)COCCOCCNC(=O)CC[C@H](NC(=O)CCCCCCCCCCCCCCCCC(=O)O)C(=O)O)C(=O)N[C@H](C(=O)N[C@@H](Cc2ccc(OCCNC(=O)CCC(=O)N[C@H](CC(=O)O)C[N+](C)(C)C)cc2)C(=O)N[C@@H](Cc2ccc3ccccc3c2)C(=O)NC2(C(=O)N[C@@H](CCC(=O)O)C(=O)N[C@@H](CC(N)=O)C(=O)N[C@@H](Cc3cccnc3)C(=O)N(C)CC(N)=O)CCOCC2)C(C)(C)SSC1(C)C [compound 36, MeCO-r-Pen(3)-N-T-7MeW-K(PEG2PEG2gEC18OH)-Pen(3)-AEF(d)-2Nal-THP-E-N-3Pya-Sar-CONH2] (Ac-[dR][Pen]NT[Trp(7-Me)]K([AEEA-AEEA-γGlu-C18 diacid])[Pen][AEF]([Suc-X2])[2Nal][Thp]EN[3Pal][Sar]-NH2; disulfide 2-7)	50 to 500	< 0.5
Cc1cccc2c(C[C@@H]3NC(=O)[C@H]([C@@H](C)O)NC(=O)[C@H](CC(N)=O)NC(=O)[C@@H](NC(=O)[C@@H](CCCNC(=N)N)NC(=O)CCOCCOCC[N+](C)(C)C)C(C)(C)SSC(C)(C)[C@@H](C(=O)N[C@@H](Cc4ccc(OCCN)cc4)C(=O)N[C@@H](Cc4ccc5ccccc5c4)C(=O)NC4(C(=O)N[C@@H](CCC(=O)O)C(=O)N[C@@H](CC(N)=O)C(=O)N[C@@H](Cc5cccnc5)C(=O)N(C)CC(N)=O)CCOCC4)NC(=O)[C@H](CCCCNC(=O)COCCOCCNC(=O)COCCOCCNC(=O)CC[C@H](NC(=O)CCCCCCCCCCCCCCCCC(=O)O)C(=O)O)NC3=O)c[nH]c12 [compound 72, cPEG3aCO-r-Pen(3)-N-T-7MeW-K(PEG2PEG2C18OH)-Pen(3)-AEF-2Nal-THP-E-N-3Pya-Sar-CONH2] ({Me3N+(CH2)2O(CH2)2O(CH2)2CO}-[dR][Pen]NT[Trp(7-Me)]K([AEEA-AEEA-γGlu-C18 diacid])[Pen][AEF][2Nal][Thp]EN[3Pal][Sar]-NH2; disulfide 2-7)	50 to 500	< 0.5
CC(=O)N(C)CCCC[C@@H]1NC(=O)[C@H](Cc2c[nH]c3c(C)cccc23)NC(=O)[C@H]([C@@H](C)O)NC(=O)[C@H](CC(=O)N(C)C)NC(=O)[C@@H](CC(=O)CCOCCOCC[N+](C)(C)C)C(C)(C)SSC(C)(C)[C@@H](C(=O)N[C@@H](Cc2ccc(OCCOCCOCC[N+](C)(C)C)cc2)C(=O)N[C@@H](Cc2ccc3ccccc3c2)C(=O)NC2(C(=O)N[C@@H](CCCCN(C)C(C)=O)C(=O)NC(CC(N)=O)C(=O)N[C@@H](Cc3cccnc3)C(=O)N(C)[C@@H](CCCCNC(=O)COCCOCCNC(=O)COCCOCCNC(=O)CC[C@H](NC(=O)CCCCCCCCCCCCCCCCCCC(=O)O)C(=O)O)C(N)=O)CCOCC2)NC1=O (some centres unmarked) [compound 112, cPEG3aCO-Pen(3)-N(N(Me)2)-T-7MeW-K(NMeAc)-Pen(3)-APEG3F-2Nal-THP-K(NMeAc)-N-3Pya-NMeK(PEG2PEG2gEC20OH)-CONH2] (D(NMe2)T[Trp(7-Me)][Lys(Me)](Ac)[Pen]Y(CH2CH2OCH2CH2OCH2CH2NMe3+)[2Nal][Thp][Lys(Me)](Ac)[ξN][3Pal][NMeK]([AEEA-AEEA-γGlu-C20 diacid])-NH2; linker N-5 via X16)	50 to 500	0.5 to 5
